Laboratory results from patent US11292791B2 (priority 2017, dated 2022).

Biological target: BRD4 (Homo sapiens (Human), UniProt O60885)
Conditions: read-out: BRD4 IC50 (μM gmean)

SMILES	IC50 [µM]
COC(=O)N1c2ccc3c(nc(Cc4cc(F)ccc4OC)n3[C@H]3CC[C@H](C(=O)O)CC3)c2CC[C@@H]1C [Example 561]	1 to 1000
COC(=O)N1c2ccc3c(nc(Cc4ccc(OC5CC5)nc4)n3[C@@H]3CCC[C@@H](C(=O)O)C3)c2CC[C@@H]1C [Example 562]	1 to 1000
COC(=O)N1c2ccc3c(nc(CC(C(=O)O)c4ccc(C)cc4)n3C3COCC(F)(F)C3)c2CC[C@@H]1C (stereo partly drawn) [Example 563]	1 to 1000
COC(=O)N1c2ccc3c(nc(Cc4ccc(OC)cc4)n3[C@@H]3CCC[C@@H](C(=O)O)C3)c2CC[C@@H]1C [Example 568]	1 to 1000
COC(=O)N1c2ccc3c(nc(C4(Oc5ccccc5)CC4)n3[C@H]3CC[C@H](C(=O)O)CC3)c2CC[C@@H]1C [Example 574]	1 to 1000
COC(=O)N1c2ccc3c(nc(CC4CCCCC4)n3[C@@H]3CCC[C@@H](C(=O)O)C3)c2CC[C@@H]1C [Example 575]	1 to 1000
COC(=O)N1c2ccc3c(nc(Cc4ccc5[nH]ccc5c4)n3[C@@H]3CCC[C@@H](C(=O)O)C3)c2CC[C@@H]1C [Example 577]	1 to 1000
COC(=O)N1c2ccc3c(nc(CC(C(=O)O)c4cccc5ccccc45)n3C3CCCOC3)c2CC[C@@H]1C (stereo partly drawn) [Example 580]	1 to 1000
COC(=O)N1c2ccc3c(nc(Cc4ccc(N(C)C)c(F)c4)n3[C@H]3CC[C@H](C(=O)O)CC3)c2CC[C@@H]1C [Example 581]	1 to 1000
COC(=O)N1c2ccc3c(nc(C(CO)c4ccccc4)n3C3CCC(C(=O)O)CC3)c2CC[C@@H]1C (stereo partly drawn) [Example 582]	1 to 1000
COC(=O)N1c2ccc3c(nc(C(C)Cn4cccn4)n3C3CCCC(C(=O)O)C3)c2CC[C@@H]1C (stereo partly drawn) [Example 583]	1 to 1000
COC(=O)N1c2ccc3c(nc(CC(C(=O)O)c4ccc(C(F)F)cc4)n3C3CCCOC3)c2CC[C@@H]1C (stereo partly drawn) [Example 584]	1 to 1000
COC(=O)N1c2ccc3c(nc(C4(N5CCCCC5=O)CC4)n3[C@@H]3CCC[C@@H](C(=O)O)C3)c2CC[C@@H]1C [Example 588]	1 to 1000
COC(=O)N1c2ccc3c(nc(C(O)c4cc5ccoc5cn4)n3C3CCCC(C(=O)O)C3)c2CC[C@@H]1C (stereo partly drawn) [Example 589]	1 to 1000
COC(=O)N1c2ccc3c(nc(N(C)c4ccc(C)cc4)n3[C@@H]3CCC[C@@H](C(=O)O)C3)c2CC[C@@H]1C [Example 591]	1 to 1000
COC(=O)N1c2ccc3c(nc(Cc4cccc(OC(F)F)n4)n3[C@@H]3CCC[C@@H](C(=O)O)C3)c2CC[C@@H]1C [Example 593]	1 to 1000
COC(=O)N1c2ccc3c(nc(CC(C(=O)O)c4ccccc4)n3C3COCC(F)(F)C3)c2CC[C@@H]1C (stereo partly drawn) [Example 594]	1 to 1000
COC(=O)N1c2ccc3c(nc(C(O)CC4CCC(F)(F)CC4)n3C3CCCC(C(=O)O)C3)c2CC[C@@H]1C (stereo partly drawn) [Example 596]	1 to 1000
COC(=O)N1c2ccc3c(nc(Cc4cccc(F)c4)n3[C@@H]3CCC[C@@H](C(=O)O)C3)c2CC[C@@H]1C [Example 601]	1 to 1000
COC(=O)N1c2ccc3c(nc(CC(C(=O)O)c4ccccc4)n3C3COCC(F)(F)C3)c2CC[C@@H]1C (stereo partly drawn) [Example 602]	1 to 1000
COC(=O)N1c2ccc3c(nc(C(C)(O)c4ccccc4)n3C3CCCC(C(=O)O)C3)c2CC[C@@H]1C (stereo partly drawn) [Example 607]	1 to 1000
COC(=O)N1c2ccc3c(nc(C(O)c4ccc(Cl)cn4)n3C3CCCC(C(=O)O)C3)c2CC[C@@H]1C (stereo partly drawn) [Example 610]	1 to 1000
COC(=O)N1c2ccc3c(nc(Cc4cncc(C(C)C)n4)n3[C@@H]3CCC[C@@H](C(=O)O)C3)c2CC[C@@H]1C [Example 611]	1 to 1000
COC(=O)N1c2ccc3c(nc(N(C)c4cccc(F)c4)n3[C@H]3CC[C@H](C(=O)O)CC3)c2CC[C@@H]1C [Example 613]	1 to 1000

SMILES	IC50 [µM]
COC(=O)N1c2ccc3c(nc(CC4CCCCC4O)n3C3CCCC(C(=O)O)C3)c2CC[C@@H]1C (stereo partly drawn) [Example 614]	1 to 1000
COC(=O)N1c2ccc3c(nc(Cc4cccc(Cl)c4)n3[C@@H]3CCC[C@@H](C(=O)O)C3)c2CC[C@@H]1C [Example 616]	1 to 1000
COC(=O)N1c2ccc3c(nc(C4(n5cc(Cl)cn5)CC4)n3[C@H]3CC[C@H](C(=O)O)CC3)c2CC[C@@H]1C [Example 617]	1 to 1000
COC(=O)N1c2ccc3c(nc(Cc4ccc(OC(F)F)nc4)n3[C@@H]3CCC[C@@H](C(=O)O)C3)c2CC[C@@H]1C [Example 619]	1 to 1000
COC(=O)N1c2ccc3c(nc(CC(C(=O)O)c4ccc(C5CC5)cc4)n3C3CCCOC3)c2CC[C@@H]1C (stereo partly drawn) [Example 620]	1 to 1000
COC(=O)N1c2ccc3c(nc(C(C)CC4CCOCC4)n3C3CCCC(C(=O)O)C3)c2CC[C@@H]1C (stereo partly drawn) [Example 622]	1 to 1000
COC(=O)N1c2ccc3c(nc(C(O)C4CCCCC4)n3C3CCCC(C(=O)O)C3)c2CC[C@@H]1C (stereo partly drawn) [Example 625]	1 to 1000
COC(=O)N1c2ccc3c(nc(C(C)Cn4cccn4)n3C3CCC(C(=O)O)CC3)c2CC[C@@H]1C (stereo partly drawn) [Example 627]	1 to 1000
COC(=O)N1c2ccc3c(nc(CCn4cc(Cl)cn4)n3[C@@H]3CCC[C@@H](C(=O)O)C3)c2CC[C@@H]1C [Example 628]	1 to 1000
COC(=O)N1c2ccc3c(nc(CC(C(=O)O)c4ccc(C(F)F)cc4)n3C3COCC(F)(F)C3)c2CC[C@@H]1C (stereo partly drawn) [Example 629]	1 to 1000
COC(=O)N1c2ccc3c(nc(CC(C(=O)O)c4ccccc4)n3C3CCCC(OC)C3)c2CC[C@@H]1C (stereo partly drawn) [Example 632]	1 to 1000
COC(=O)N1c2ccc3c(nc(COc4ccccc4)n3[C@H]3CC[C@H](C(=O)O)CC3)c2CC[C@@H]1C [Example 633]	1 to 1000
COC(=O)N1c2ccc3c(nc(CN4CCC5(CCC5)CC4=O)n3[C@@H]3CCC[C@@H](C(=O)O)C3)c2CC[C@@H]1C [Example 634]	1 to 1000
COC(=O)N1c2ccc3c(nc(C(O)c4cc5c(cn4)OCC5)n3C3CCCC(C(=O)O)C3)c2CC[C@@H]1C (stereo partly drawn) [Example 636]	1 to 1000
COC(=O)N1c2ccc3c(nc(Cc4ccc(NC(C)=O)c(F)c4)n3[C@H]3CC[C@H](C(=O)O)CC3)c2CC[C@@H]1C [Example 639]	1 to 1000
COC(=O)N1c2ccc3c(nc(Cc4ccc(OC)c(OC)c4)n3[C@@H]3CCC[C@@H](C(=O)O)C3)c2CC[C@@H]1C [Example 641]	1 to 1000
COC(=O)N1c2ccc3c(nc(Cn4cc(Cl)cn4)n3[C@@H]3CCC[C@@H](C(=O)O)C3)c2CC[C@@H]1C [Example 643]	1 to 1000
COC(=O)N1c2ccc3c(nc(CC(C(=O)O)c4cccc(C)c4)n3C3CCCOC3)c2CC[C@@H]1C (stereo partly drawn) [Example 644]	1 to 1000
COC(=O)N1c2ccc3c(nc(Cc4cncc(Cl)n4)n3[C@@H]3CCC[C@@H](C(=O)O)C3)c2CC[C@@H]1C [Example 645]	1 to 1000
COC(=O)N1c2ccc3c(nc(C(C)(C)c4ccccc4)n3[C@H]3CC[C@H](C(=O)O)CC3)c2CC[C@@H]1C [Example 646]	1 to 1000
COC(=O)N1c2ccc3c(nc(CCC4CCOCC4)n3[C@@H]3CCC[C@@H](C(=O)O)C3)c2CC[C@@H]1C [Example 648]	1 to 1000
COC(=O)N1c2ccc3c(nc(C(C)Cn4cc(Cl)cn4)n3C3CCS(=O)(=O)C3)c2CC[C@@H]1C (stereo partly drawn) [Example 651]	1 to 1000
COC(=O)N1c2ccc3c(nc(C(C)Cn4cc(C)cn4)n3C3CCC(C(=O)O)CC3)c2CC[C@@H]1C (stereo partly drawn) [Example 655]	1 to 1000
COC(=O)N1c2ccc3c(nc(Cc4cc(Cl)cc(OC)c4)n3[C@H]3CC[C@H](C(=O)O)CC3)c2CC[C@@H]1C [Example 656]	1 to 1000
